Source: the supplement of paper PMC11061612

Tests used:
Test in all cases: combination Emax (second highest fraction inhibited in the dose matrix, 72 h); higher = more inhibition; extreme values may be limits of the assay
[1] = test system: BHT-101 (Thyroid Gland Carcinoma)
Outline: (§1)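 After 24 hours at 37°C and 5% CO2 in 1536-well plates, cells in DMEM/F12 or RPMI plus 10% FBS received two-drug dose matrices for 72 hours. Viability came from CellTiter-Glo 2.0 luminescence and was scaled as inhibition, anchored at 0 by vehicle wells and at 1 by blank wells. Combination Emax is taken as the second-highest inhibition in the matrix, and Bliss excess as the observed combination effect less EA + EB − EA·EB, with EA and EB the single-agent effects.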

[2] = test system: DBTRG-05MG (Glioblastoma)
Outline: as §1

[3] = test system: KP-4 (Pancreatic Carcinoma)
Outline: as §1

[4] = test system: MM1S (Plasma Cell Myeloma)
Outline: as §1

[5] = test system: MOLT-13 (T-Lymphoblastic Leukemia)
Outline: as §1

[6] = test system: NAMALWA (Burkitt's Lymphoma)
Outline: as §1

NB1 (Neuroblastoma) = test system: NB1 (Neuroblastoma)
Outline: as §1

[7] = test system: OVCAR-3 (Ovarian Carcinoma)
Outline: as §1

[8] = test system: PL4 (Pancreatic Carcinoma)
Outline: as §1

[9] = test system: SNU-423 (Hepatocellular Carcinoma)
Outline: as §1

T47D (Breast Carcinoma) = test system: T47D (Breast Carcinoma)
Outline: as §1

[10] = test system: T84 (Colorectal Carcinoma)
Outline: as §1

UACC-257 (Melanoma) = test system: UACC-257 (Melanoma)
Outline: as §1

WM35 (Melanoma) = test system: WM35 (Melanoma)
Outline: as §1

SMILES	combination Emax [1]	combination Emax [2]	combination Emax [3]	combination Emax [4]	combination Emax [5]	combination Emax [6]	combination Emax (NB1 (Neuroblastoma))	combination Emax [7]	combination Emax [8]	combination Emax [9]	combination Emax (T47D (Breast Carcinoma))	combination Emax [10]	combination Emax (UACC-257 (Melanoma))	combination Emax (WM35 (Melanoma))
Cc1cc2ncnn2cc1Nc1ncc2c(n1)n(C1CCOCC1)c(=O)n2C [AZD7648] + CN(C)CCCOc1ccc(-c2ccc3ncc4c(c3c2)n(C2CCOCC2)c(=O)n4C)cn1 [AZD0156] (first compound max 10 µM, 7x7, partner max 1 µM)	0.366	0.192	0.23	0.389	0.15	0.266	0.238	0.116	0.0509	0.341	0.501	0.214	0.186	0.129
Cc1cc2ncnn2cc1Nc1ncc2c(n1)n(C1CCOCC1)c(=O)n2C [AZD7648] + C[C@@H]1COCCN1C2=NC(=NC(=C2)C3(CC3)[S@](=N)(=O)C)C4=C5C=CNC5=NC=C4 [AZD6738] (first compound max 10 µM, 7x7, partner max 10 µM)	0.626	0.306	0.44	0.592	0.903	0.936	0.775	0.233	0.631	0.524	0.464	0.706	0.15	0.497
Cc1cc2ncnn2cc1Nc1ncc2c(n1)n(C1CCOCC1)c(=O)n2C [AZD7648] + O=C(c1cc(Cc2n[nH]c(=O)c3ccccc23)ccc1F)N1CCN(C(=O)C2CC2)CC1 [Olaparib] (first compound max 10 µM, 7x7, partner max 10 µM)	0.383	0.0842	0.181	0.339	0.35	0.578	0.191	0.145	0.28	0.275	0.313	0	0.0535	0.119
COc1cccc2c1C(=O)c1c(O)c3c(c(O)c1C2=O)C[C@@](O)(C(=O)CO)C[C@@H]3O[C@H]1C[C@H](N)[C@H](O)[C@H](C)O1 [Doxorubicin] + Cc1cc2ncnn2cc1Nc1ncc2c(n1)n(C1CCOCC1)c(=O)n2C [AZD7648] (first compound max 1 µM, 7x7, partner max 10 µM)	0.563	0.588	0.76	0.922	0.986	0.976	0.89	0.426	0.535	0.713	0.64	0.163	0.431	0.564
COc1cccc(OCCCN)c1-c1cc(Nc2cnc(C#N)cn2)n[nH]1 [Prexasertib] + C=CCn1c(=O)c2cnc(Nc3ccc(N4CCN(C)CC4)cc3)nc2n1-c1cccc(C(C)(C)O)n1 [AZD1775] (first compound max 1 µM, partner max 1 µM)	0.881	0.331	0.8	0.963	1	0.989	0.906	0.885	0.852	0.878	0.704	0.861	0.48	0.819
COc1cccc(OCCCN)c1-c1cc(Nc2cnc(C#N)cn2)n[nH]1 [Prexasertib] + CCc1c2c(nc3ccc(O)cc13)-c1cc3c(c(=O)n1C2)COC(=O)[C@]3(O)CC [SN-38] (first compound max 1 µM, 7x7, partner max 0.3 µM)	0.91	0.624	0.9	1	1	0.986	0.912	0.963	0.877	0.779	0.784	0.866	0.295	0.726
COc1cccc(OCCCN)c1-c1cc(Nc2cnc(C#N)cn2)n[nH]1 [Prexasertib] + CN(C)CCCOc1ccc(-c2ccc3ncc4c(c3c2)n(C2CCOCC2)c(=O)n4C)cn1 [AZD0156] (first compound max 1 µM, 7x7, partner max 1 µM)	0.799	0.409	0.434	0.847	1	0.991	0.911	0.758	0.806	0.713	0.426	0.815	0.364	0.845
COc1cccc(OCCCN)c1-c1cc(Nc2cnc(C#N)cn2)n[nH]1 [Prexasertib] + C[C@@H]1COCCN1C2=NC(=NC(=C2)C3(CC3)[S@](=N)(=O)C)C4=C5C=CNC5=NC=C4 [AZD6738] (first compound max 1 µM, 7x7, partner max 10 µM)	0.78	0.281	0.536	0.877	1	0.986	0.773	0.773	0.809	0.695	0.374	0.815	0.33	0.833
COc1cccc(OCCCN)c1-c1cc(Nc2cnc(C#N)cn2)n[nH]1 [Prexasertib] + Cc1cc2ncnn2cc1Nc1ncc2c(n1)n(C1CCOCC1)c(=O)n2C [AZD7648] (first compound max 1 µM, 7x7, partner max 10 µM)	0.748	0.315	0.429	0.858	1	0.994	0.78	0.784	0.836	0.735	0.512	0.785	0.321	0.772
COc1cccc(OCCCN)c1-c1cc(Nc2cnc(C#N)cn2)n[nH]1 [Prexasertib] + O=C(c1cc(Cc2n[nH]c(=O)c3ccccc23)ccc1F)N1CCN(C(=O)C2CC2)CC1 [Olaparib] (first compound max 1 µM, 7x7, partner max 10 µM)	0.774	0.326	0.641	0.931	1	0.983	0.561	0.821	0.812	0.77	0.479	0.826	0.312	0.79
COc1cc2c(cc1OCCCCCOc1cc3c(cc1OC)C(=O)N1C=C(C)C[C@H]1C=N3)N=C[C@@H]1CC(C)=CN1C2=O [SG3199] + O=C(c1cc(Cc2n[nH]c(=O)c3ccccc23)ccc1F)N1CCN(C(=O)C2CC2)CC1 [Olaparib] (first compound max 0.001 µM, 7x7, partner max 10 µM)	0.193	0.114	0.0915	0.293	0.226	0.575	0.187	0.127	0.204	0.146	0.164	0.0664	0.0273	0.144
CCc1c2c(nc3ccc(O)cc13)-c1cc3c(c(=O)n1C2)COC(=O)[C@]3(O)CC [SN-38] + CN(C)CCCOc1ccc(-c2ccc3ncc4c(c3c2)n(C2CCOCC2)c(=O)n4C)cn1 [AZD0156] (first compound max 0.3 µM, 7x7, partner max 1 µM)	0.774	0.412	0.817	0.966	1	0.989	0.83	0.449	0.828	0.455	0.643	0.644	0.281	0.509
CC(=O)Nc1cccc(-n2c(=O)n(C3CC3)c(=O)c3c(Nc4ccc(I)cc4F)n(C)c(=O)c(C)c32)c1 [Trametinib] + Cc1nc(-c2cn3c(n2)-c2ccc(-c4cnn(C(C)(C)C(N)=O)c4)cc2OCC3)n(C(C)C)n1 [Taselisib] (first compound max 1 µM, 7x7, partner max 10 µM)	1	0.69	0.694	1	0.698	0.589	0.995	0.652	0.951	0.827	0.643	0.96	0.806	0.97
CC1(C)CCC(CN2CCN(c3ccc(C(=O)NS(=O)(=O)c4ccc(NCC5CCOCC5)c([N+](=O)[O-])c4)c(Oc4cnc5[nH]ccc5c4)c3)CC2)=C(c2ccc(Cl)cc2)C1 [Venetoclax] + C1CN(CCC1(C(=O)N[C@@H](CCO)C2=CC=C(C=C2)Cl)N)C3=NC=NC4=C3C=CN4 [Capivasertib] (first compound max 1 µM, 7x7, partner max 3 µM)	0.214	0.209	0.0982	0.978	0.566	0.534	0.755	0.161	0.197	0.393	0.373	0.168	0.123	0.178
CC1(C)CCC(CN2CCN(c3ccc(C(=O)NS(=O)(=O)c4ccc(NCC5CCOCC5)c([N+](=O)[O-])c4)c(Oc4cnc5[nH]ccc5c4)c3)CC2)=C(c2ccc(Cl)cc2)C1 [Venetoclax] + C=CCn1c(=O)c2cnc(Nc3ccc(N4CCN(C)CC4)cc3)nc2n1-c1cccc(C(C)(C)O)n1 [AZD1775] (first compound max 1 µM, partner max 1 µM)	0.489	0.241	0.56	0.908	1	0.975	0.889	0.63	0.551	0.732	0.219	0.577	0.185	0.165
CC1(C)CCC(CN2CCN(c3ccc(C(=O)NS(=O)(=O)c4ccc(NCC5CCOCC5)c([N+](=O)[O-])c4)c(Oc4cnc5[nH]ccc5c4)c3)CC2)=C(c2ccc(Cl)cc2)C1 [Venetoclax] + CCN(CCO)CCCOc1ccc2c(Nc3cc(CC(=O)Nc4cccc(F)c4)[nH]n3)ncnc2c1 [AZD2811] (first compound max 1 µM, 7x7, partner max 1 µM)	0.157	0.228	0.322	0.265	1	0.56	0.606	0.194	0.248	0.229	0.266	0.127	0.226	0.152
